Read-outs that look alike come from different tables or passages of the source. No end group written: not given here.
Target: T1, GPR103 L193^ECL2A (Homo sapiens, UniProt Q96P65, L193A)
T1 construct: we used human full-length QRFPR-encoding plasmids; expressed in transfected cells; host or cells: HEK293 cells, pCAGGS vector
T1 sequence (Q96P65 1-431 L193A): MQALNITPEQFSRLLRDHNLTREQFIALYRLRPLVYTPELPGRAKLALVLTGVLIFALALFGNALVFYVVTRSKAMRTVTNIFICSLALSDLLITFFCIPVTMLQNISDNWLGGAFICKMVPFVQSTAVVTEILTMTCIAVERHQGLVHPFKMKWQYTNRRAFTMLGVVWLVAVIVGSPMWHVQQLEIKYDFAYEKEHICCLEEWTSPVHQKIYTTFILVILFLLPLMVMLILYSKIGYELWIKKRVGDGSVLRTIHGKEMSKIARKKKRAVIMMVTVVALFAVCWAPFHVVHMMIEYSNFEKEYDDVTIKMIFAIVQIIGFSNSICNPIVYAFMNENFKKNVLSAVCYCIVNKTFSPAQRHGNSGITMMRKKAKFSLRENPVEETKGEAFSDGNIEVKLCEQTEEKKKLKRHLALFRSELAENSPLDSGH
Experiment: TGFα shedding assay; Exp. level WT (1:50)
Format: cell-based
Description: For the TGFα shedding assay and the flow cytometry analysis, we used human full-length QRFPR-encoding plasmids. Specifically, GPR103 was N-terminally modified with an HA signal sequence followed by a FLAG epitope and then a flexible linker ([…]; the FLAG epitope is underlined) and inserted into the pCAGGS vector. Plasmid encoding GPR103 mutants were generated using Quickchange Site-Directed Mutagensis kit (Agilent).
The TGFα shedding assay was performed as described previously with minor modifications. Plasmid transfection was performed in a 6-well plate with a mixture of 500 ng (per well in a 6-well plate) AP-TGFα-encoding plasmid and 200 ng GPR103-encoding plasmid. After 1-day culture, the transfected cells were harvested by trypsinization, pelleted by centrifugation at 190 × g for 5 min, and washed once with 5 mM HEPES (pH 7.4)-containing Hank’s Balanced Salt Solution (HBSS). After centrifugation, the cells were resuspended in 8 mL of the HEPES-containing HBSS. The cell suspension was seeded in a 96-well culture plate (cell plate) at a volume of 90 μL (per well hereafter) and incubated in a 37 °C incubator with 5% CO2 for 30 min. […] After spinning the cell plates at 190 × g for 2 min, 80 μL of conditioned media was transferred to an empty 96-well plate (conditioned media (CM) plate). Then, 80 μL of AP reaction solution (10 mM p-nitrophenylphosphate (p-NPP), 120 mM Tris-HCl (pH 9.5), 40 mM NaCl, and 10 mM MgCl2) was dispensed into the cell plates and the CM plates. Absorbance at 405 nm of the plates was measured using a microplate reader (SpectraMax 340 PC384, Molecular Devices) before and after 1-h incubation at room temperature. Ligand-induced AP-TGFα release was calculated by subtracting spontaneous AP-TGFα release signal from ligand-induced AP-TGFα release signal. The AP-TGFα release signals were fitted to a four-parameter sigmoidal concentration–response curve, using the Prism 10 software (GraphPad Prism). For each replicate experiment, the pEC50 parameter (negative logarithmic values of EC50 values) of the individual GPR103 mutants were normalized to that of the wild-type GPR103 performed in parallel, and resulting ∆pEC50 values were used to denote ligand response activity of the mutants. […]
Exp. le vel: WT (1:5 0)Exp. le vel: WT (1:5 0)Exp. le vel: WT (1:5 0)Exp. le vel: WT (1:2 0)Exp. le vel: WT (1:2 0)Exp. le vel: WT (1:1 0) […]
L1 4N - t e r mA F2 5N - t e r mA I 2 6N - t e r mA Y 2 9N - t e r mA C 9 82 .5 7A T10 22 .6 1A Exp . l eve l: WT (1 :5)Exp . l evel : >WT (1 :1)Exp. le vel: WT (1:2 0)Exp. le vel: WT (1:2 0)Exp. le vel: WT (1:5 0)Exp . l eve l: WT (1 :1) […]
Exp. le vel: WT (1:1 0)Exp. le vel: WT (1:2 0) C 1 1 83 .2 5AExp. le vel: WT (1:5 0)Exp. le vel: WT (1:5 0)Exp. le vel: WT (1:2 0)Exp . l eve l: WT (1 :5) […]
Exp. le vel: WT (1:5 0)Exp. le vel: WT (1:1 0)Exp. le vel: WT (1:5 0) E203ECL2AExp . l evel : >WT (1 :1)Exp. le vel: WT (1:5 0)Exp. le vel: WT (1:5 0) […]
Exp . l eve l: WT (1 :1) F28Exp. le vel: WT (1:5 0) C 2 8 56 .4 7AExp. le vel: WT (1:2 0) WExp. le vel: WT (1:2 0) F28Exp. le vel: WT (1:5 0)Exp . l evel : >WT (1 :1) […]
Exp. le vel: WT (1:5 0)Exp. le vel: WT (1:5 0) C 3 2 77 .4 8AExp . l eve l: WT (1 :5)Exp . l evel : >WT (1 :1)Exp . l evel : >WT (1 :1) […]
Suppl eme nt ary Figure 1 | Mutational analysis of GPR103. […]
mutants. Data are presented as mean values ± SEM, normally n=3-5; dots), each performed in triplicate. b-d Cell-surface expression (b) and QRFP26-in-duced activation of GPR103 (c, d) were analyzed by the flow cytometry and the TGFα shedding assay, respectively. From the concentration–response curves (a), Emax (c) and ΔpEC50 (d) values relative to the wild type were calculated. Colors in the mutant bars indicate an expression level matching to that of titrated wild type. Statistical analyses were performed using the ordinary one-way ANOVA followed by Dunnett tests with the expression-matched […]

## TSGPLGNLAEELNGYSRKKGGFSFRF-NH2 [QRFP26]
Exp. #1
  Emax: 89.95 % WT
Exp. #2
  Emax: 86.94 % WT
Exp. #3
  Emax: 94.38 % WT
mean, read-out: Emax
  Emax: 90.4%
N = 3
  EC50: 182 nM
N = 3, read-out: Emax
  Emax: 93.8 ± 1.8%

Source: PMC11187126, “Structure and dynamics of the pyroglutamylated RF-amide peptide QRFP receptor GPR103” (Nature Communications, 2024)
